{
  "source": "paper PMC4441825",
  "about": "(Chemical research in toxicology, 2013)",
  "target": "regulator of G-protein signaling 4 (RGS4) (Rattus norvegicus, UniProt P49799)",
  "sequence (P49799 52-205)": "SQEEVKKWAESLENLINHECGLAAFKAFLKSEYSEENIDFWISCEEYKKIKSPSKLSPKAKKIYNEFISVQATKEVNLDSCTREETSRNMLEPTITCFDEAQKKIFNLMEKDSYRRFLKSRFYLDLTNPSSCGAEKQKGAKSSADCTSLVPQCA",
  "sequence (P63096 2-354 R178M/A326S partner)": "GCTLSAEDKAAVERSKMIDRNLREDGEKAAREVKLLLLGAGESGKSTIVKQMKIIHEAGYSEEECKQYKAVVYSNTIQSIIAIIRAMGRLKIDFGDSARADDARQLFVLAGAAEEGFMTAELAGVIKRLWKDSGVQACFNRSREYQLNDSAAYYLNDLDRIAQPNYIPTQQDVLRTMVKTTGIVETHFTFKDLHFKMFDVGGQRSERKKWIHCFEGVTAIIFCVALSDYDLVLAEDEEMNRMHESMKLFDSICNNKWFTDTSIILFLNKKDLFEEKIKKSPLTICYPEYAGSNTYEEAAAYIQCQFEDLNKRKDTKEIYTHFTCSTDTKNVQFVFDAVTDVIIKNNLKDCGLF",
  "test": "LC-ESI-MS of intact protein",
  "assay_type": "biochemical",
  "data": [
    {"smiles": "CCCCCC(O)C=CC=O", "note": "(stereo not shown) [4HNE, 4-hydroxy-2-nonenal]", "values": [
      {"measurement": "IC50", "result": "~7.5", "unit": "mM"}
    ]}
  ]
}
